US8338597B2, “Pyridones useful as inhibitors of kinases” (Vertex Pharmaceuticals Incorporated, priority 2004, dated 2012)

Tests used:
[1] = biological target: T1, Itk (Homo sapiens, UniProt Q08881); experiment: ITK inhibition assay, radioactive-phosphate incorporation; format: biochemical; details: [γ-33P]ATP, SAM68 peptide, 25° C.
T1 sequence (Q08881 1-620): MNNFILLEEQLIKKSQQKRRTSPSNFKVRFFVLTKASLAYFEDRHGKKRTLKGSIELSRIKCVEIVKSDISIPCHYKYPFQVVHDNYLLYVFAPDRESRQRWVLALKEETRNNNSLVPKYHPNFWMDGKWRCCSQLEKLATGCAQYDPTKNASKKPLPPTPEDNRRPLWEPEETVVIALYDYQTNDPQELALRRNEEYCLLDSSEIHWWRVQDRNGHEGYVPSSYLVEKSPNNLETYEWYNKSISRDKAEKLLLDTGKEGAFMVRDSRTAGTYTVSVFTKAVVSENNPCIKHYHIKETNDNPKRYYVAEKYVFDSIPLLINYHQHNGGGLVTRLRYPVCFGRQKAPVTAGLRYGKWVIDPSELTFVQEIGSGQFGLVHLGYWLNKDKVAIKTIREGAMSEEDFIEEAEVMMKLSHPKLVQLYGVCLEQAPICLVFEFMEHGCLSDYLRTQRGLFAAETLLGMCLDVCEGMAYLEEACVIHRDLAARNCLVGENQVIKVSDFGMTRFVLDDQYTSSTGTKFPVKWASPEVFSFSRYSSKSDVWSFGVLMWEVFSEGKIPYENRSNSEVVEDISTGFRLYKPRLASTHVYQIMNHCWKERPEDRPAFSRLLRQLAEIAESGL
Procedure: Assays were carried out in a mixture of 20 mM MOPS (pH 7.0), 10 mM MgCl2, 0.1% BSA and 1 mM DTT. […] Assays were carried out at 25° C. in the presence of 50 nM Itk. An assay stock buffer solution was prepared containing all of the reagents listed above, with the exception of ATP and the test compound of interest.
The reaction was stopped after 10 minutes by the addition of […] 0.2M phosphoric acid+0.01% TWEEN 20. A multiscreen phosphocellulose filter 96-well plate (Millipore, Cat no. MAPHN0B50) was pretreated with 100 μL 0.2M phosphoric acid+0.01% TWEEN 20 prior to the addition of […] of the stopped assay mixture. The plate was washed with 4×200 μL 0.2M phosphoric acid+0.01% TWEEN 20.
Ki(app) data were calculated from non-linear regression analysis of the initial rate data using the Prism software package (GraphPad Prism version 3.0cx for Macintosh, GraphPad Software, San Diego Calif., USA).

[2] = biological target: T2, Rlk (Homo sapiens, UniProt P42681); experiment: RLK inhibition assay, standard coupled enzyme assay; format: biochemical; details: 100 μM ATP, 40 nM Rlk, 30° C.
T2 sequence (P42681 1-527): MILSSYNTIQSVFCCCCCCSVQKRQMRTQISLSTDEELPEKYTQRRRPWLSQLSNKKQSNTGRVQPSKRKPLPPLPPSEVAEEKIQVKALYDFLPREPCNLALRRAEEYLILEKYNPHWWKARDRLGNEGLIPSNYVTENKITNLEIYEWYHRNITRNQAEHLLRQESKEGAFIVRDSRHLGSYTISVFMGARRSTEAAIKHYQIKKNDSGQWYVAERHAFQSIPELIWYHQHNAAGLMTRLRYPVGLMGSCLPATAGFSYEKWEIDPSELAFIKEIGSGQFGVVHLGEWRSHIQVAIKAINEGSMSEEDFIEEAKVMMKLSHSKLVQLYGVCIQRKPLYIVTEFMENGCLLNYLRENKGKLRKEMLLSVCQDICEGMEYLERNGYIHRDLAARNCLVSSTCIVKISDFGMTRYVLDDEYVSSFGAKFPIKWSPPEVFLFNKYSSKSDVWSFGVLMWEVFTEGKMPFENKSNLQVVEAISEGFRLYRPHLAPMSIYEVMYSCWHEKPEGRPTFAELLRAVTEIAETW
Procedure: Compounds were screened for their ability to inhibit Rlk using a standard coupled enzyme assay (Fox et al., Protein Sci., (1998) 7, 2249). Assays were carried out in a mixture of 20 mM MOPS (pH 7.0), 10 mM MgCl2, 0.1% BSA and 1 mM DTT. Final substrate concentrations in the assay were 100 μM ATP (Sigma Chemicals) and 10 μM peptide (Poly Glu:Tyr 4:1). Assays were carried out at 30° C. and in the presence of 40 nM Rlk. Final concentrations of the components of the coupled enzyme system were 2.5 mM phosphoenolpyruvate, 300 μM NADH, 30 μg/ml pyruvate kinase and 10 μg/ml lactate dehydrogenase.
An assay stock buffer solution was prepared containing all of the reagents listed above, with the exception of ATP and the test compound of interest. 60 μl of the stock solution was placed in a 96 well plate followed by addition of […] of DMSO stock containing serial dilutions of the test compound (typically starting from a final concentration of 7.5 μM). The plate was preincubated for 10 minutes at 30° C. and the reaction initiated by addition of 5 μl of ATP. Initial reaction rates were determined with a Molecular Devices SpectraMax Plus plate reader over a 10 minute time course. IC50 and Ki data were calculated from non-linear regression analysis using the Prism software package (GraphPad Prism version 3.0cx for Macintosh, GraphPad Software, San Diego Calif., USA).

| SMILES | Ki [1] [nM] | Ki [2] [nM] |
| --- | --- | --- |
| O=C(Nc1cc(-c2ccncc2)c[nH]c1=O)c1ccc(N2CCNCC2)cc1 [Compound I-71] | < 100 | > 1000 |
| CCN(CC)CCN1CCN(c2ccc(C(=O)Nc3cc(-c4ccncc4)c[nH]c3=O)cc2)CC1 [Compound I-74] | < 100 | > 1000 |
| CNc1nccc(-c2c[nH]c(=O)c(NC(=O)c3ccc(C(C)(C)C)cc3)c2)n1 [II-14] | < 100 | < 1000 |
| Cn1cc(-c2c[nH]c(=O)c(NC(=O)c3ccc(C(C)(C)C)cc3)c2)cn1 [II-15] | 100 to 1000 | > 1000 |
| CNc1cc(-c2c[nH]c(=O)c(NC(=O)c3ccc(C(C)(C)C)cc3)c2)ncn1 [II-17] | < 100 | > 1000 |
| CC(C)(C)c1ccc(C(=O)Nc2cc(-c3ccnc(NC4CCNCC4)n3)c[nH]c2=O)cc1 [II-28] | < 100 | < 1000 |
| CC(C)(C)c1ccc(C(=O)Nc2cc(-c3ccnc(NC4CCCNC4)n3)c[nH]c2=O)cc1 (centres unmarked) [II-29] | < 100 | < 1000 |
| CC(C)(C)c1ccc(C(=O)Nc2cc(-c3ccnc(NC4CCNC4)n3)c[nH]c2=O)cc1 (centres unmarked) [II-30] | < 100 | < 1000 |
| CC(C)(C)c1ccc(C(=O)Nc2cc(-c3ccnc(N[C@@H]4CCNC4)n3)c[nH]c2=O)cc1 [II-31] | < 100 | < 1000 |
| CNCCNc1cccc(-c2c[nH]c(=O)c(NC(=O)c3ccc(C(C)(C)C)cc3)c2)n1 [II-35] | < 100 | < 1000 |
| CNCCNc1cc(-c2c[nH]c(=O)c(NC(=O)c3ccc(C(C)(C)C)cc3)c2)ncn1 [II-38] | 100 to 1000 | > 1000 |
| CNc1nccc(-c2c[nH]c(=O)c(NC(=O)c3ccc(N4CCCCC4)cc3)c2)n1 [II-40, N-(1,2-dihydro-5-(2-(methylamino)pyrimidin-4-yl)-2-oxopyridin-3-yl)-4-(piperidin-1-yl)benzamide] | < 100 | < 1000 |
| CNc1cc(-c2c[nH]c(=O)c(NC(=O)c3ccc(N4CCCCC4)cc3)c2)ncn1 [II-46] |  | > 1000 |
| CNc1cccc(-c2c[nH]c(=O)c(NC(=O)c3ccc(N4CCCCC4)cc3)c2)n1 [II-47] |  | > 1000 |
| CNCCN(C)c1nccc(-c2c[nH]c(=O)c(NC(=O)c3ccc(N4CCCCC4)cc3)c2)n1 [II-65] | < 100 | > 1000 |
| CNCCNc1cccc(-c2c[nH]c(=O)c(NC(=O)c3ccc(N4CCCCC4)cc3)c2)c1 [II-75] | 100 to 1000 | > 1000 |
| CNc1nccc(-c2c[nH]c(=O)c(NC(=O)c3ccc(N4CCN(CCCOC)CC4)cc3)c2)n1 [II-79] | < 100 | < 1000 |
| CNc1nccc(-c2c[nH]c(=O)c(NC(=O)c3ccc(N4CCN(C(C)=O)CC4)cc3)c2)n1 [II-81] | < 100 | < 1000 |
| CC(C)(C)c1ccc(C(=O)Nc2cc(C3=CC(=O)CCC3)c[nH]c2=O)cc1 [II-83] | 100 to 1000 | > 1000 |
| CNc1cc(-c2c[nH]c(=O)c(NC(=O)c3ccc(N4CCCCC4)cc3)c2)ccn1 [II-115] |  | > 1000 |
| N#Cc1cncc(-c2c[nH]c(=O)c(NC(=O)c3ccc(N4CCC[C@H]4CN4CCCC4)cc3)c2)c1 [II-154] | 100 to 1000 |  |
| CNc1cncc(-c2c[nH]c(=O)c(NC(=O)c3ccc(N4CCN(C)CC4)cc3)c2)n1 [II-155] | < 100 |  |
| CNc1cncc(-c2c[nH]c(=O)c(NC(=O)c3ccc(N4CCC(CCO)CC4)cc3)c2)n1 [II-156] | < 100 |  |
| CNc1cccc(-c2c[nH]c(=O)c(NC(=O)c3ccc(OCC4CCNCC4)cc3)c2)n1 [II-157] | < 100 |  |
| CNc1cncc(-c2c[nH]c(=O)c(NC(=O)c3ccc(OCCN4CCNCC4)cc3)c2)n1 [II-158] | < 100 |  |
| CNc1cncc(-c2c[nH]c(=O)c(NC(=O)c3ccc(N4CCCCC4)cc3)c2)c1 [II-159] |  | > 1000 |
| N#Cc1ccnc(-c2c[nH]c(=O)c(NC(=O)c3ccc(N4CCNCC4)cc3)c2)c1 [II-161] | 100 to 1000 |  |
| CNc1cncc(-c2c[nH]c(=O)c(NC(=O)c3ccc(NCCN4CCCC4)cc3)c2)n1 [II-162] | < 100 |  |
| CNc1cncc(-c2c[nH]c(=O)c(NC(=O)c3ccc(N(C)CCc4cnc[nH]4)cc3)c2)n1 [II-165] | < 100 |  |
| CNc1cncc(-c2c[nH]c(=O)c(NC(=O)c3ccc(N(C)CCCN(C)C)cc3)c2)n1 [II-167] | < 100 |  |

The next lines start with the values.

| Ki [1] [nM] | Ki [2] [nM] | SMILES |
| --- | --- | --- |
| < 100 |  | CNc1cc(-c2c[nH]c(=O)c(NC(=O)c3ccc(N4CCNCC4)cc3)c2)ccn1 [II-169] |
| < 100 |  | CNc1cc(-c2c[nH]c(=O)c(NC(=O)c3ccc(OCC4CCNCC4)cc3)c2)ncn1 [II-170] |
| < 100 |  | CNc1cc(-c2c[nH]c(=O)c(NC(=O)c3ccc(N4CCC[C@H]4CN4CCCC4)cc3)c2)ccn1 [II-172] |
| 100 to 1000 |  | O=C(Nc1cc(-c2cccc(NC(CO)CO)n2)c[nH]c1=O)c1ccc(N2CCCCC2)cc1 [II-174] |
| 100 to 1000 |  | CCNc1cncc(-c2c[nH]c(=O)c(NC(=O)c3ccc(N4CCC[C@H]4CN4CCCC4)cc3)c2)n1 [II-175] |
| 100 to 1000 |  | O=C(Nc1cc(-c2cncc(NC3CC3)n2)c[nH]c1=O)c1ccc(N2CCC[C@H]2CN2CCCC2)cc1 [II-176] |
| < 100 |  | CNc1cncc(-c2c[nH]c(=O)c(NC(=O)c3ccc(OCCCN4CCCCC4)cc3)c2)n1 [II-177] |
| < 100 |  | CNc1cncc(-c2c[nH]c(=O)c(NC(=O)c3ccc(OC4CCNCC4)cc3)c2)n1 [II-181] |
| < 100 |  | CNc1cncc(-c2c[nH]c(=O)c(NC(=O)c3ccc(OCCCN4CCOCC4)cc3)c2)n1 [II-182] |
| 100 to 1000 |  | CCc1ccc(NC(=O)c2cc(-c3ccncc3)c[nH]c2=O)cc1 [III-7] |
| 100 to 1000 |  | O=C(Nc1ccc(Br)cc1)c1cc(-c2ccncc2)c[nH]c1=O [III-8] |
| 100 to 1000 |  | COc1ccc(NC(=O)c2cc(-c3ccncc3)c[nH]c2=O)cc1 [III-11] |
| 100 to 1000 |  | COc1ccc(NC(=O)c2cc(-c3ccncc3)c[nH]c2=O)cc1OC [III-16] |
| < 100 |  | O=C(Nc1ccc(N2CCOCC2)cc1)c1cc(-c2ccncc2)c[nH]c1=O [III-42] |
| 100 to 1000 |  | O=C(Nc1ccc(C2CCCCC2)cc1)c1cc(-c2ccncc2)c[nH]c1=O [III-43] |
| < 100 |  | O=C(Nc1ccc(N2CCCCC2)cc1)c1cc(-c2ccncc2)c[nH]c1=O [III-44] |
| 100 to 1000 |  | CCOc1ccc(NC(=O)c2cc(-c3ccncc3)c[nH]c2=O)cc1 [III-45] |
| < 100 |  | CN1CCN(c2ccc(NC(=O)c3cc(-c4ccncc4)c[nH]c3=O)cc2)CC1 [III-46] |
| < 100 |  | CCN1CCN(c2ccc(NC(=O)c3cc(-c4ccncc4)c[nH]c3=O)cc2)CC1 [III-47] |
| < 100 |  | O=C(Nc1ccc(N2CCC(O)CC2)cc1)c1cc(-c2ccncc2)c[nH]c1=O [III-52] |
| < 100 |  | O=C(Nc1ccc(N2CCNCC2)cc1)c1cc(-c2ccncc2)c[nH]c1=O [III-54] |
